How the values were obtained:
Type in all cases: cell-based
CK1α = biological target: T1, CK1α (Homo sapiens, UniProt P48729+Q96SW2); experiment: HiBiT degradation assay, CK1α, Procedure A
T1 construct: CSNK1A1-HiBit KI HEK293(LgBit) Cells; host or cells: HEK293(LgBit) knock-in cells
Method in brief: (§1)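 Luminescence from HiBiT lytic detection, read after 20 min shaking, gave DC50 and Ymin by 4-parameter fit. Before that, cells (1×10^6 cells/ml, DMEM+10% FBS) sat 6 h at 37° C on 10-point compound series (10 μM–0.005 μM, 0.1% DMSO).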

GSPT1 [1] = biological target: T2, GSPT1 (Homo sapiens, UniProt P15170+Q96SW2); experiment: HiBiT degradation assay, GSPT1, Procedure B (Molt 4_hGSPT1_HiBIT cells); set-up: Molt 4_hGSPT1_HiBIT N-terminus tagged cells were generated using CRISPR technology; endogenous in cells; host or cells: Molt 4 cells, CRISPR-edited; conditions: six hours
Protocol: Molt 4_hGSPT1_HiBIT N-terminus tagged cells were generated using CRISPR technology. Cells were maintained in RPMI media (Thermo Fisher Scientific, Catalog #11875-093) containing 10% Fetal Bovine Serum (Thermo Fisher Scientific, Catalog #16140071) 1% Penicillin-Streptomycin (Thermo Fisher Scientific, Catalog #25200056). Cells were maintained at 37° C. in a 5% CO2 environment.
Compounds were spotted onto Cornin 384-Well, Cell Culture-Treated, Flat-Bottom, Low Flange Microplate (Fisher Scientific, Catalog #07-201-013) using a Tecan D300e digital dispenser. Ten-point dose response curves spanning from 10 μM to 0.005 μM with a 0.1% DMSO tolerance were used.
Cells were centrifuged for 5 minutes at 1200 RPMs. Cell culture media was aspirated off and cells were resuspended with RPMI+10% FBS. Cell density was determined using a Denovix CellDrop BF cell counter. Cell density was adjusted to 1×10^6 cells/ml. 40 μl of cells was added to compound treated tissue culture plates and incubated for six hours at 37° C. After six hours, cell culture plates were removed from tissue culture incubator and cooled to room temperature. 40 μl of Nano-GloHiBiT Lytic Detection Reagent (Promega, Catalog #N3040) was added to each well. Plates were placed on an orbital shaker (600 rpm) for 20 minutes. Luminescence was measured using an Envsion plate reader (Perkin Elmer). IC50 curves and Ymin were generated using a 4-parameter curve fit with GraphPad Prism software (Prism Corporation).
Results from the HiBiT assay (DC50 (nM) and Ymin (% remaining)) are shown below. All CK1α data was generated according to Procedure A. GSPT1 data for Examples 1-600, 603-620 and 703-705 was generated according to Procedure A. GSPT1 data for Examples 601, 621-702 and 706-735 was generated according to Procedure B.

GSPT1 [2] = biological target: T2, GSPT1; experiment: HiBiT degradation assay, GSPT1, Procedure A; set-up: HiBit-GSPT1 KI HEK293(LgBit) Cells; host or cells: HEK293(LgBit) knock-in cells
Method in brief: as §1

T1 sequence (P48729 whole entry): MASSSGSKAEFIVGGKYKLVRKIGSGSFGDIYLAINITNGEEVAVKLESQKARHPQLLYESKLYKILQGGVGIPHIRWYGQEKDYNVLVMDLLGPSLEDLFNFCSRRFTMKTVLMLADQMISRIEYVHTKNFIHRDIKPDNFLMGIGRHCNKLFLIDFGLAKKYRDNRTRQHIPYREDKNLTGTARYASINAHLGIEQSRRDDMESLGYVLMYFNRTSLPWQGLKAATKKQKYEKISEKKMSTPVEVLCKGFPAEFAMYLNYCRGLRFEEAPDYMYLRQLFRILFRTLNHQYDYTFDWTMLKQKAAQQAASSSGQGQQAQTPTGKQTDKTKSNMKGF
T1 sequence (Q96SW2 whole entry): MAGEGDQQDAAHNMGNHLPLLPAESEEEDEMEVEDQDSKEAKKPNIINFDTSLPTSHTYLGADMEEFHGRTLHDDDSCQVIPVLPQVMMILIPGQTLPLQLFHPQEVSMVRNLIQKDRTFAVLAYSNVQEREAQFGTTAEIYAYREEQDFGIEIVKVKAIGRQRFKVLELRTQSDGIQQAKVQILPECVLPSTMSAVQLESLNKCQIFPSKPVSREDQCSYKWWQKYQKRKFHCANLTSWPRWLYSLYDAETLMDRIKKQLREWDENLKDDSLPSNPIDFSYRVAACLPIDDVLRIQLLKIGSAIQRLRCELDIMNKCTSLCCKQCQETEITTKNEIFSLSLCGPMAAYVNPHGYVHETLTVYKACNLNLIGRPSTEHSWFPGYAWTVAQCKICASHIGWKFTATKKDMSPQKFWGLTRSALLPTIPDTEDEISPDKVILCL
T1 sequence (Q16531 whole entry partner): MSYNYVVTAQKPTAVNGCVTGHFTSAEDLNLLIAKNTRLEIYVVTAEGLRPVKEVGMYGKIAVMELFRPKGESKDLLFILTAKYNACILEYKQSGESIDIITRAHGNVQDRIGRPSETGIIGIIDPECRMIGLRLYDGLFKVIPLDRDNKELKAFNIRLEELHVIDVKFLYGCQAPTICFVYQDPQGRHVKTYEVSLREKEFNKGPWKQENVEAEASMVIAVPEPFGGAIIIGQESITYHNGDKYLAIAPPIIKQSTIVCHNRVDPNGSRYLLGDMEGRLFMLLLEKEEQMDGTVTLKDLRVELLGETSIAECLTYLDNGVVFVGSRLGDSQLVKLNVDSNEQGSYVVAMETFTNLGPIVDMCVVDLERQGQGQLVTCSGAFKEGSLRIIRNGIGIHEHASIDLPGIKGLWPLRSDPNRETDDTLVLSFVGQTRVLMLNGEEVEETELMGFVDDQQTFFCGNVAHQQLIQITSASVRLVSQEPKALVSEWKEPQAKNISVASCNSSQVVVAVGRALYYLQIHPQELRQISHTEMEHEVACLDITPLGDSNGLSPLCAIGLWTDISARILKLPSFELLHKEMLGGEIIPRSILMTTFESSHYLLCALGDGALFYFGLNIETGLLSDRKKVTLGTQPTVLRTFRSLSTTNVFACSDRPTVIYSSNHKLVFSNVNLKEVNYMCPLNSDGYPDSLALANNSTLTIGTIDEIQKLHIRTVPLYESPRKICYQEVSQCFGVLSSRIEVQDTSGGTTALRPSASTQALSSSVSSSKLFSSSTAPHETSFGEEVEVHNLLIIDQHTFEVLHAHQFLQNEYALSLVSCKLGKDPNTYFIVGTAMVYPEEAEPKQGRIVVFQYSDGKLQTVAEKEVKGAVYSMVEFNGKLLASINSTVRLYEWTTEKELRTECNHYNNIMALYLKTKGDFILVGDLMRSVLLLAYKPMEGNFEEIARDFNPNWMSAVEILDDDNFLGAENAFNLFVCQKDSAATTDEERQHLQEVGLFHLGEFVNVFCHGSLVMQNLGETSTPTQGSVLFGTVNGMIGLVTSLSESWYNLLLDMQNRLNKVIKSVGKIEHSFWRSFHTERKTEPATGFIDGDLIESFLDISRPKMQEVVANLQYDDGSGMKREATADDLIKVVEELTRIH
T2 sequence (P15170 whole entry): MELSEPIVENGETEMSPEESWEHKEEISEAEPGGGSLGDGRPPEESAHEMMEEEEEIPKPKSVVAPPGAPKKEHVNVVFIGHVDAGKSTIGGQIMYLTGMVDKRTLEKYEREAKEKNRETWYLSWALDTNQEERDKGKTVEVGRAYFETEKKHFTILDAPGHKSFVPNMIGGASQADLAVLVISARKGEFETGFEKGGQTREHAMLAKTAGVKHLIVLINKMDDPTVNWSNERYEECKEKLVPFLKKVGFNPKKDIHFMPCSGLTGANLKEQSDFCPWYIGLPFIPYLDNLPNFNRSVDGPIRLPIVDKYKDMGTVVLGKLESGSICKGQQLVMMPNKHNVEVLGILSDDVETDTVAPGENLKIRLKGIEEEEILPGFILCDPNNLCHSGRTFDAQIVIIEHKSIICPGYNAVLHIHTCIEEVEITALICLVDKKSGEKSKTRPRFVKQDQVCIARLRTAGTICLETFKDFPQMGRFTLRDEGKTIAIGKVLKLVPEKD
T2 sequence (Q96SW2 whole entry): as the sequence (Q96SW2 whole entry) above
T2 sequence (Q16531 whole entry partner): as the sequence (Q16531 whole entry partner) above

| CK1α Ymin (CK1α; six hours) | DC50 (CK1α; six hours) [nM] | DC50 (GSPT1 [1]) [nM] | GSPT1 Ymin (GSPT1 [1]) | CK1α Ymin (CK1α; six hours incubation) | DC50 (CK1α; six hours incubation) [nM] | DC50 (GSPT1 [2]; six hours incubation) [nM] | GSPT1 Ymin (GSPT1 [2]; six hours incubation) | DC50 (GSPT1 [2]; six hours) [nM] | GSPT1 Ymin (GSPT1 [2]; six hours) | Compound |
| --- | --- | --- | --- | --- | --- | --- | --- | --- | --- | --- |
| D (D = >10- 25% remaining) | < 25 | < 25 | F (F = >75-100% remaining) |  |  |  |  |  |  | Cn1nc(-c2ccc3c(c2)CN(C2CCC(=O)NC2=O)C3=O)nc1-c1ccc(F)cc1 (centres unmarked) [Example 623, 3-(5-(5-(4-fluorophenyl)-1-methyl-1H-1,2,4-triazol-3-yl)-1-oxoisoindolin-2-yl)piperidine-2,6-dione] |
| E (E = >25-75% remaining) | < 25 | ≥ 25 | F (F = >75-100% remaining) |  |  |  |  |  |  | Cn1cc(-c2ccc3c(c2)CN(C2CCC(=O)NC2=O)C3=O)nc1-c1ccc(Cl)c(F)c1 (centres unmarked) [Example 661] |
| D (D = >10- 25% remaining) | ≥ 25 | ≥ 25 | F (F = >75-100% remaining) |  |  |  |  |  |  | Cn1cc(-c2ccc3c(c2)CN(C2CCC(=O)NC2=O)C3=O)nc1-c1ccc2nccn2c1 (centres unmarked) [Example 658] |
| D (D = >10- 25% remaining) | < 25 | ≥ 25 | F (F = >75-100% remaining) |  |  |  |  |  |  | Cn1cc(-c2ccc3c(c2)CN(C2CCC(=O)NC2=O)C3=O)nc1-c1ccc(F)cc1Cl (centres unmarked) [Example 647] |
| C (C = 0-10% remaining) | < 25 | ≥ 25 | F (F = >75-100% remaining) |  |  |  |  |  |  | Cn1cc(-c2ccc3c(c2)CN(C2CCC(=O)NC2=O)C3=O)nc1-c1cccc(F)c1F (centres unmarked) [Example 724] |
| C (C = 0-10% remaining) | ≥ 25 | ≥ 25 | F (F = >75-100% remaining) |  |  |  |  |  |  | Cn1cc(-c2ccc3c(c2)CN(C2CCC(=O)NC2=O)C3=O)nc1-c1ccncc1 (centres unmarked) [Example 630] |
| E (E = >25-75% remaining) | ≥ 25 | < 25 | F (F = >75-100% remaining) |  |  |  |  |  |  | Cn1cc(-c2ccc3c(c2)CN(C2CCC(=O)NC2=O)C3=O)nc1-c1ccc2c(c1)CCC(=O)N2 (centres unmarked) [Example 678] |
|  |  |  |  | D (D = >10- 25% remaining) | < 25 | < 25 | E (E = >25-75% remaining) |  |  | Cn1ncc(-c2ccc3c(c2)CN(C2CCC(=O)NC2=O)C3=O)c1-c1ccc(Cl)cc1 (centres unmarked) [Example 174] |
| E (E = >25-75% remaining) | ≥ 25 |  |  |  |  |  |  | < 25 | F (F = >75-100% remaining) | Cn1ncc(-c2ccc3c(c2)CN(C2CCC(=O)NC2=O)C3=O)c1-c1cnn(C2CCC2)c1 (centres unmarked) [Example 475] |
| D (D = >10- 25% remaining) | < 25 |  |  |  |  |  |  | ≥ 25 | E (E = >25-75% remaining) | CC(C)Cn1cc(-c2c(-c3ccc4c(c3)CN(C3CCC(=O)NC3=O)C4=O)ncn2C)cn1 (centres unmarked) [Example 491] |
| E (E = >25-75% remaining) | ≥ 25 |  |  |  |  |  |  | ≥ 25 | F (F = >75-100% remaining) | Cn1ncc(-c2ccc3c(c2)CN(C2CCC(=O)NC2=O)C3=O)c1-c1cnc2sccc2c1 (centres unmarked) [Example 394] |
|  |  |  |  | E (E = >25-75% remaining) | < 25 | ≥ 25 | F (F = >75-100% remaining) |  |  | Cn1ncc(-c2ccc3c(c2)CN(C2CCC(=O)NC2=O)C3=O)c1-c1cccc(C(F)F)c1 (centres unmarked) [Example 59] |
| E (E = >25-75% remaining) | < 25 |  |  |  |  |  |  | ≥ 25 | F (F = >75-100% remaining) | Cn1ncc(-c2ccc3c(c2)CN(C2CCC(=O)NC2=O)C3=O)c1-c1cccnc1N (centres unmarked) [Example 453] |
|  |  |  |  | C (C = 0-10% remaining) | < 25 | ≥ 25 | F (F = >75-100% remaining) |  |  | Cc1c(-c2ccc3c(c2)CN(C2CCC(=O)NC2=O)C3=O)nc(-c2ccccc2)n1C (centres unmarked) [Example 338, 3-(5-(1,5-dimethyl-2-phenyl-1H-imidazol-4-yl)-1-oxoisoindolin-2-yl)piperidine-2,6-dione] |
|  |  |  |  | E (E = >25-75% remaining) | < 25 | ≥ 25 | F (F = >75-100% remaining) |  |  | Cc1ccc(F)cc1-c1c(-c2ccc3c(c2)CN(C2CCC(=O)NC2=O)C3=O)ncn1C (centres unmarked) [Example 237] |
|  |  |  |  | E (E = >25-75% remaining) | < 25 | ≥ 25 | F (F = >75-100% remaining) |  |  | CC(C)n1cc(-c2c(-c3ccc4c(c3)CN(C3CCC(=O)NC3=O)C4=O)ncn2C)cn1 (centres unmarked) [Example 330] |
|  |  |  |  | C (C = 0-10% remaining) | ≥ 25 | ≥ 25 | F (F = >75-100% remaining) |  |  | CNC(=O)c1ccc(-c2c(-c3ccc4c(c3)CN(C3CCC(=O)NC3=O)C4=O)ncn2C)cc1 (centres unmarked) [Example 267] |
|  |  |  |  | C (C = 0-10% remaining) | < 25 | < 25 | E (E = >25-75% remaining) |  |  | COc1ccc(-c2c(-c3ccc4c(c3)CN(C3CCC(=O)NC3=O)C4=O)ncn2C)c(F)c1 (centres unmarked) [Example 189] |
|  |  |  |  | E (E = >25-75% remaining) | ≥ 25 | ≥ 25 | F (F = >75-100% remaining) |  |  | Cn1ncc(-c2ccc3c(c2)CN(C2CCC(=O)NC2=O)C3=O)c1-c1ccc(NC(=O)c2ccccc2)cc1 (centres unmarked) [Example 100] |
| E (E = >25-75% remaining) | < 25 |  |  |  |  |  |  | ≥ 25 | F (F = >75-100% remaining) | Cn1ncc(-c2ccc3c(c2)CN(C2CCC(=O)NC2=O)C3=O)c1-c1ccc2scnc2c1 (centres unmarked) [Example 392] |
|  |  |  |  | E (E = >25-75% remaining) | < 25 | ≥ 25 | F (F = >75-100% remaining) |  |  | CC(C)c1ccc(-c2c(-c3ccc4c(c3)CN(C3CCC(=O)NC3=O)C4=O)cnn2C)cc1 (centres unmarked) [Example 84] |
|  |  |  |  | E (E = >25-75% remaining) | ≥ 25 | ≥ 25 | F (F = >75-100% remaining) |  |  | CN1CCN(Cc2ccc(-c3c(-c4ccc5c(c4)CN(C4CCC(=O)NC4=O)C5=O)cnn3C)cc2)CC1 (centres unmarked) [Example 154] |
|  |  |  |  | D (D = >10- 25% remaining) | < 25 | < 25 | E (E = >25-75% remaining) |  |  | Cc1cc(-c2c(-c3ccc4c(c3)CN(C3CCC(=O)NC3=O)C4=O)ncn2C)ccc1Cl (centres unmarked) [Example 200] |
| D (D = >10- 25% remaining) | < 25 |  |  |  |  |  |  | ≥ 25 | F (F = >75-100% remaining) | Cn1nc(-c2ccc3c(c2)CN(C2CCC(=O)NC2=O)C3=O)nc1N1CCC2(CC1)CC2 (centres unmarked) [Example 608, 3-(5-(1-methyl-5-(6-azaspiro[2.5]octan-6-yl)-1H-1,2,4-triazol-3-yl)-1-oxoisoindolin-2-yl)piperidine-2,6-dione] |
|  |  |  |  | E (E = >25-75% remaining) | < 25 | ≥ 25 | F (F = >75-100% remaining) |  |  | Cn1ncc(-c2ccc3c(c2)CN(C2CCC(=O)NC2=O)C3=O)c1-c1cccc2c1OCC2 (centres unmarked) [Example 105] |
| C (C = 0-10% remaining) | < 25 |  |  |  |  |  |  | < 25 | E (E = >25-75% remaining) | Cn1cnc(-c2ccc3c(c2)CN(C2CCC(=O)NC2=O)C3=O)c1-c1ccc2occc2c1 (centres unmarked) [Example 489] |
|  |  |  |  | C (C = 0-10% remaining) | ≥ 25 | ≥ 25 | F (F = >75-100% remaining) |  |  | CN(C)C(=O)c1ccc(-c2c(-c3ccc4c(c3)CN(C3CCC(=O)NC3=O)C4=O)cnn2C)cc1 (centres unmarked) [Example 121] |
|  |  |  |  | E (E = >25-75% remaining) | < 25 | ≥ 25 |  |  |  | Cn1cnc(-c2ccc3c(c2)CN(C2CCC(=O)NC2=O)C3=O)c1-c1cccc(C#N)c1F (centres unmarked) [Example 247] |
|  |  |  |  | E (E = >25-75% remaining) | ≥ 25 | ≥ 25 | F (F = >75-100% remaining) |  |  | Cn1ncc(-c2ccc3c(c2)CN(C2CCC(=O)NC2=O)C3=O)c1-c1ccc(C(=O)NC2CCCC2)cc1 (centres unmarked) [Example 98] |
|  |  |  |  | E (E = >25-75% remaining) | < 25 | ≥ 25 | F (F = >75-100% remaining) |  |  | Cn1ncc(-c2ccc3c(c2)CN(C2CCC(=O)NC2=O)C3=O)c1-c1cccc(F)c1 (centres unmarked) [Example 135] |

From patent US20240158370A1, “CK1 alpha AND DUAL CK1 alpha / GSPT1 DEGRADING COMPOUNDS” (Innovo Therapeutics, Inc., priority 2022, published 2024)
